Data from ChEMBL document CHEMBL1201862, “PubChem BioAssay data set” (2004).
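Grown in 96-well plates, cells were treated for 48 hours with each compound at five concentrations. Insufficient inhibition: endpoint recorded as highest concentration tested. Here, GI50 denotes the concentration required for 50% inhibition of growth.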 The source made the active and inactive calls. Rule as the data show it: active = GI50 up to about 1.1 µM and inactive = higher.

What was measured:
Assay in all cases: growth of human tumour cells (NCI), 48 h
M14 = tested on: M14
NCI-H23 = tested on: NCI-H23
SF-539 = tested on: SF-539
MDA-MB-231 = tested on: MDA-MB-231
HOP-92 = tested on: HOP-92
RPMI-8226 = tested on: RPMI-8226
HT-29 = tested on: HT-29
BT-549 = tested on: BT-549
EKVX = tested on: EKVX
NCI-H460 = tested on: NCI-H460
786-0 = tested on: 786-0
MDA-N = tested on: MDA-N
UACC-257 = tested on: UACC-257
RXF 393 = tested on: RXF 393
HOP-62 = tested on: HOP-62
SR = tested on: SR
SK-OV-3 = tested on: SK-OV-3
NCI-H522 = tested on: NCI-H522
SK-MEL-28 = tested on: SK-MEL-28
A549 = tested on: A549
PC-3 = tested on: PC-3
MDA-MB-435 = tested on: MDA-MB-435
SNB-75 = tested on: SNB-75
OVCAR-4 = tested on: OVCAR-4
HCC 2998 = tested on: HCC 2998
SNB-19 = tested on: SNB-19
ACHN = tested on: ACHN
SF-295 = tested on: SF-295
CCRF-CEM = tested on: CCRF-CEM
UACC-62 = tested on: UACC-62
Hs-578T = tested on: Hs-578T
HCT-15 = tested on: HCT-15
A498 = tested on: A498
OVCAR-5 = tested on: OVCAR-5
SN12C = tested on: SN12C
DU-145 = tested on: DU-145
IGROV-1 = tested on: IGROV-1
OVCAR-3 = tested on: OVCAR-3
KM12 = tested on: KM12
K562 = tested on: K562
NCI/ADR-RES = tested on: NCI/ADR-RES
MOLT-4 = tested on: MOLT-4
NCI-H226 = tested on: NCI-H226
T47D = tested on: T47D
UO-31 = tested on: UO-31
SK-MEL-5 = tested on: SK-MEL-5
COLO 205 = tested on: COLO 205
Malme-3M = tested on: Malme-3M
OVCAR-8 = tested on: OVCAR-8
HL-60 = tested on: HL-60
HCT-116 = tested on: HCT-116
TK-10 = tested on: TK-10
CAKI-1 = tested on: CAKI-1
SF-268 = tested on: SF-268
U-251 = tested on: U-251
SK-MEL-2 = tested on: SK-MEL-2
MCF7 = tested on: MCF7
SW-620 = tested on: SW-620
LOX IMVI = tested on: LOX IMVI
HOP-18 = tested on: HOP-18
DMS-273 = tested on: DMS-273
DLD-1 = tested on: DLD-1
SNB-78 = tested on: SNB-78
M19-MEL = tested on: M19-MEL
KM-20L2 = tested on: KM-20L2
DMS-114 = tested on: DMS-114

COc1ccc(/N=C2\C(=S)N(c3ccc(OC)cc3)/C(=N/S(=O)(=O)c3ccccc3)N2c2ccccc2)cc1
GI50 (M14): 4.9 µM (inactive) | GI50 (NCI-H23): 10.2 µM (inactive) | GI50 (SF-539): 9.12 µM (inactive) | GI50 (MDA-MB-231): 4.79 µM (inactive) | GI50 (HOP-92): 7.01 µM (inactive) | GI50 (RPMI-8226): 1.45 µM (inactive) | GI50 (HT-29): 19.9 µM (inactive) | GI50 (BT-549): 4.94 µM (inactive) | GI50 (EKVX): 16.4 µM (inactive) | GI50 (NCI-H460): 23.8 µM (inactive) | GI50 (786-0): 7.14 µM (inactive) | GI50 (MDA-N): 3.93 µM (inactive) | GI50 (UACC-257): 13 µM (inactive) | GI50 (RXF 393): 5.22 µM (inactive) | GI50 (HOP-62): > 35.3 µM (inactive) | GI50 (SR): 0.889 µM (active) | GI50 (SK-OV-3): > 39.9 µM (inactive) | GI50 (NCI-H522): 1.64 µM (inactive) | GI50 (SK-MEL-28): 13.8 µM (inactive) | GI50 (A549): 34.9 µM (inactive) | GI50 (PC-3): 4.67 µM (inactive) | GI50 (MDA-MB-435): 7.87 µM (inactive) | GI50 (SNB-75): 17.3 µM (inactive) | GI50 (OVCAR-4): 9.25 µM (inactive) | GI50 (HCC 2998): > 34.5 µM (inactive) | GI50 (SNB-19): 36.9 µM (inactive) | GI50 (ACHN): 8.85 µM (inactive) | GI50 (SF-295): 22.2 µM (inactive) | GI50 (CCRF-CEM): 2.59 µM (inactive) | GI50 (UACC-62): 6.07 µM (inactive) | GI50 (Hs-578T): 17.9 µM (inactive) | GI50 (HCT-15): 5.75 µM | GI50 (A498): > 100 µM (inactive) | GI50 (OVCAR-5): 17.3 µM (inactive) | GI50 (SN12C): 15.1 µM (inactive) | GI50 (DU-145): 22.1 µM (inactive) | GI50 (IGROV-1): 12.9 µM (inactive) | GI50 (OVCAR-3): 5.5 µM (inactive) | GI50 (KM12): 13.2 µM (inactive) | GI50 (K562): 1.02 µM (active) | GI50 (NCI/ADR-RES): 23.6 µM (inactive) | GI50 (MOLT-4): 0.953 µM (active) | GI50 (NCI-H226): 16 µM (inactive) | GI50 (T47D): 1.09 µM (active) | GI50 (UO-31): 3.59 µM (inactive) | GI50 (SK-MEL-5): 4.57 µM (inactive) | GI50 (COLO 205): 8.81 µM (inactive) | GI50 (Malme-3M): 15.1 µM (inactive) | GI50 (OVCAR-8): 3.95 µM (inactive) | GI50 (HL-60): 0.986 µM (active) | GI50 (HCT-116): 6.64 µM (inactive) | GI50 (TK-10): 14.7 µM (inactive) | GI50 (CAKI-1): 13.2 µM (inactive) | GI50 (SF-268): 8.87 µM (inactive) | GI50 (U-251): 8.53 µM (inactive) | GI50 (SK-MEL-2): 7.64 µM (inactive) | GI50 (MCF7): 17 µM (inactive) | GI50 (SW-620): 2.62 µM (inactive) | GI50 (LOX IMVI): 3.59 µM (inactive)

O=C1NC(=O)C2(CCc3ccc(N(CCCl)CCCl)cc32)N1 (stereo not drawn)
GI50 (NCI-H23): 6.5 µM (inactive) | GI50 (SF-539): 5.27 µM (inactive) | GI50 (HOP-92): 13.5 µM (inactive) | GI50 (RPMI-8226): 19.7 µM (inactive) | GI50 (HT-29): 16.4 µM (inactive) | GI50 (EKVX): 3.15 µM (inactive) | GI50 (NCI-H460): 3.98 µM (inactive) | GI50 (UACC-257): 16.4 µM (inactive) | GI50 (RXF 393): 6.7 µM (inactive) | GI50 (HOP-62): 9.91 µM (inactive) | GI50 (SK-OV-3): 16.1 µM (inactive) | GI50 (NCI-H522): 5.26 µM (inactive) | GI50 (SK-MEL-28): 17.5 µM (inactive) | GI50 (A549): 8.36 µM (inactive) | GI50 (SNB-75): 7.48 µM (inactive) | GI50 (OVCAR-4): 19.8 µM (inactive) | GI50 (HCC 2998): 15.9 µM (inactive) | GI50 (SNB-19): 3.37 µM (inactive) | GI50 (SF-295): 7.5 µM (inactive) | GI50 (CCRF-CEM): 1.41 µM (inactive) | GI50 (UACC-62): 4.33 µM (inactive) | GI50 (HCT-15): 15.1 µM | GI50 (A498): 16.9 µM (inactive) | GI50 (HOP-18): 20.2 µM (inactive) | GI50 (DMS-273): 2.94 µM (inactive) | GI50 (OVCAR-5): 13.2 µM (inactive) | GI50 (SN12C): 5.37 µM (inactive) | GI50 (IGROV-1): 15.9 µM (inactive) | GI50 (DLD-1): 19 µM (inactive) | GI50 (OVCAR-3): 18.4 µM (inactive) | GI50 (KM12): 29.3 µM (inactive) | GI50 (K562): 19.8 µM (inactive) | GI50 (NCI/ADR-RES): 9.77 µM (inactive) | GI50 (MOLT-4): 0.931 µM (active) | GI50 (NCI-H226): 2.08 µM (inactive) | GI50 (UO-31): 11 µM (inactive) | GI50 (SK-MEL-5): 13.5 µM (inactive) | GI50 (COLO 205): 12.3 µM (inactive) | GI50 (OVCAR-8): 14.1 µM (inactive) | GI50 (HL-60): 1.65 µM (inactive) | GI50 (HCT-116): 14.1 µM (inactive) | GI50 (CAKI-1): 3.56 µM (inactive) | GI50 (SNB-78): 22 µM (inactive) | GI50 (M19-MEL): 14.1 µM (inactive) | GI50 (SF-268): 7.36 µM (inactive) | GI50 (U-251): 6.78 µM (inactive) | GI50 (KM-20L2): 19.5 µM (inactive) | GI50 (SK-MEL-2): 21.7 µM (inactive) | GI50 (DMS-114): 10.9 µM (inactive) | GI50 (MCF7): 10.1 µM (inactive) | GI50 (SW-620): 18.2 µM (inactive) | GI50 (LOX IMVI): 8.99 µM (inactive)

C[C@H]1C[C@@H]2[C@H]([C@@H](O)C[C@@]3(C)[C@H]2CC[C@]3(O)C(=O)CO)[C@@]2(C)C=CC(=O)C=C12 [METHYLPREDNISOLONE]
GI50 (M14): > 100 µM (inactive) | GI50 (NCI-H23): > 100 µM (inactive) | GI50 (HOP-92): > 100 µM (inactive) | GI50 (RPMI-8226): > 100 µM (inactive) | GI50 (HT-29): > 100 µM (inactive) | GI50 (NCI-H460): > 100 µM (inactive) | GI50 (786-0): > 100 µM (inactive) | GI50 (UACC-257): > 100 µM (inactive) | GI50 (HOP-62): > 100 µM (inactive) | GI50 (SR): > 100 µM (inactive) | GI50 (SK-OV-3): > 100 µM (inactive) | GI50 (NCI-H522): > 100 µM (inactive) | GI50 (SK-MEL-28): > 100 µM (inactive) | GI50 (A549): > 100 µM (inactive) | GI50 (OVCAR-4): > 100 µM (inactive) | GI50 (HCC 2998): > 100 µM (inactive) | GI50 (ACHN): > 100 µM (inactive) | GI50 (CCRF-CEM): 0.0429 µM (active) | GI50 (UACC-62): > 100 µM (inactive) | GI50 (HCT-15): > 100 µM | GI50 (A498): > 100 µM (inactive) | GI50 (HOP-18): > 100 µM (inactive) | GI50 (DMS-273): > 100 µM (inactive) | GI50 (OVCAR-5): > 100 µM (inactive) | GI50 (SN12C): 46.6 µM (inactive) | GI50 (IGROV-1): > 100 µM (inactive) | GI50 (DLD-1): > 100 µM (inactive) | GI50 (OVCAR-3): > 100 µM (inactive) | GI50 (KM12): > 100 µM (inactive) | GI50 (K562): > 100 µM (inactive) | GI50 (MOLT-4): > 100 µM (inactive) | GI50 (NCI-H226): > 100 µM (inactive) | GI50 (UO-31): > 100 µM (inactive) | GI50 (SK-MEL-5): > 100 µM (inactive) | GI50 (COLO 205): > 100 µM (inactive) | GI50 (Malme-3M): > 100 µM (inactive) | GI50 (OVCAR-8): > 100 µM (inactive) | GI50 (HL-60): > 100 µM (inactive) | GI50 (HCT-116): > 100 µM (inactive) | GI50 (TK-10): > 100 µM (inactive) | GI50 (CAKI-1): > 100 µM (inactive) | GI50 (M19-MEL): > 100 µM (inactive) | GI50 (KM-20L2): > 100 µM (inactive) | GI50 (SK-MEL-2): > 100 µM (inactive) | GI50 (DMS-114): > 100 µM (inactive) | GI50 (SW-620): > 100 µM (inactive) | GI50 (LOX IMVI): > 100 µM (inactive)
